# What was measured:
# [1] = tested on: Gastric Secretion of the Rat; assay: Effects on gastric secretion of the rat (pylorus ligated); format: in vivo; conditions: for Gastric Secretion (value judgement, % decrease in acidity): subcutaneous, 2 x 1.5 mg/kg (total 3.0 mg/kg), 4 hours after pyloric ligation
# Description: Evaluation of the Effects of Prostaglandin Analogues on Gastric Secretion of the Rat
# A procedure based on that described by Lipmann (1969) is used to assess the influence of test compound on gastric secretion. Rats of one sex weighing 150 to 200 gm are randomly divided into groups of six animals each and fasted for 48 hours previous to the experiments, water being available ad libitum. The animals are anesthetized with ether, the abdomen opened through a midline incision, and the pylorus ligated. Test compounds are diluted from stock solution so as to administer a dose of 1.5 mg/kg in a volume equivalent to 1 ml/kg. Subcutaneous injections are applied immediately after surgery and again 2 hours later, so that a total dose of 3.0 mg/kg is administered. Dilutions are made with phosphate buffer (pH 7.38) as recommended by Lee et al (1973), in order to insure adequate stability of drugs at the subcutaneous depot. Each compound is tested in one group of rats; an additional control group received only one vehicle.
# Four hours after pyloric ligation the animals are killed with ether, the cardias ligated and the stomachs removed. The volume of gastric secretion is measured and the contents centrifuged at 5000 rpm for 10 minutes. Total acid in the supernatant is titrated against a 0.1 N sodium hydroxide solution and the amount expressed in mEq.
# Volume and total acid values of the treated group are compared with those of the controls by the test. Antisecretory activity is scored according to the following scale: […]
# Hypertensive Rat = assay: Effects on blood pressure in the hypertensive rat (Grollman); format: in vivo; set-up: key: 0: Not significant at any time interval; 1: Significant at one time interval; 2: Significant at two time intervals; 3: Significant at three time intervals; 4: Significant at all four time intervals; conditions: intraperitoneal, 1 mc/kg; 2, 4, 6 and 8 hours
# Description: Evaluation of the Effects of Prostaglandin Analogues on Blood Pressure in the Hypertensive Rat
# The acute antihypertensive activity of test compounds is determined in rats made hypertensive by the procedure of Grollman (1944). Female rats weighing between 60 and 100 g are anesthetized with ether, the right kidney approached through a flank retroperitoneal incision, decapsulated and tied with a figure-of-eight ligature. The animals are left to recover and two weeks later are again anesthetized and the contralateral kidney removed. Four weeks after the second operation the rats are subjected to indirect blood pressure measurements and those showing systolic pressure values greater than 160 mmHg are selected for drug testing.
# Blood pressure is measured in the tail with an inflatable occluding cuff placed at the base of the extremity and a pulse detector located distally. The cuff is inflated to approximately 300 mmHg and is slowly deflated until pulsations appear, indicating the level of systolic pressure; diastolic pressure is not recorded by this procedure. All measurements are carried out in unanesthetized, unsedated animals maintained in a warm environment during the recording procedure and for at least 6 hours before. In all cases, three pressure readings are obtained in succession and mean values are calculated thereof.
# Experiments are carried out in groups of five hypertensive rats in which systolic pressure is determined immediately before and 2, 4, 6 and 8 hours after the intraperitoneal administration of the test compound at a dose of 1 mc/kg. Drugs are diluted from stock solutions with phosphate buffer (Lee et al, 1973), so as to inject this quantity in a volume of 1 ml/kg. Changes from control blood pressure values are calculated for each interval both in mmHg and in percent and evaluated for significance by means of Wilcoxon's signed rank test (Wilcoxon and Wilcox, 1964).
# growth hormone release = conditions: rats; cited from earlier work
# [2] = tested on: ovarian progesterone secretion; conditions: sheep; cited from earlier work
# thyroid activity = conditions: mice; cited from earlier work
# adrenal glands = conditions: hypophysectomized rats; cited from earlier work
# [3] = tested on: smooth muscle of the vas deferens; conditions: mammalian male reproductive system; cited from earlier work
# gastric secretion = conditions: dogs; cited from earlier work
# blood platelets = conditions: in vitro; cited from earlier work
Compound,"Gastric Secretion (value judgement, % decrease in acidity) [1]","Blood Pressure Hypertensive Rat (value judgement, blood pressure decrease) (Hypertensive Rat)",other results
"CCCCC[C@H](O)/C=C/[C@H]1[C@H](CCCCOCCO)C(=O)C[C@@H]1O [TR-4649, 3-oxa-1,11β,15S-trihydroxy-8,12-bisisoprost-13E-en-9-one]",0 (<26),–,–
"CCCCC[C@H](O)/C=C/[C@H]1[C@H](O)CC(=O)[C@@H]1CCCCOCCO [TR-4650, 3-oxa-1,11α,15S-trihydroxyprost-13E-en-9-one]",0 (<26),1,–
"CCCCC(C)(C)[C@H](O)/C=C/[C@H]1[C@H](O)CC(=O)[C@@H]1CCCCOCCO (relative stereo) [TR-4616, ±16,16-dimethyl-3-oxa-1,11α,15R and S-trihydroxyprost-13E-en-9-one]","2 (26-50, significant)",0,"inhibition of gastric acid secretion (in words) ([1]; rat, in vivo): inhibit gastric acid secretion"
"O=C1CC(O)C(/C=C/[C@H](O)C2CCCCC2)C1CCCCOCCO (stereo partly drawn) [TR-4856, 16,20-methano-3-oxa-1,11α,15R-trihydroxyprost-13E-en-9-one]",0 (<26),2,–
"16,20-methano-oxa-1,11β,15R-trihydroxy- 8,12-bisisoprost-13E-en-9-one [TR-4853]",0 (<26),–,–
"CCCCC(C)(C)[C@@H](O)/C=C/[C@H]1[C@H](O)CC(=O)[C@@H]1CCCCOCCO (relative stereo) [TR-4617, ±16,16-dimethyl-3-oxa-1,11α,15R and S-trihydroxyprost-13E-en-9-one]",0 (<26),1,–
"CCCCC[C@H](O)/C=C/[C@H]1[C@H](O)CC(=O)[C@@H]1CCCCCCC(=O)O [PGE1, prostaglandin E1]",–,–,release of growth hormone (growth hormone release): increases the release of growth hormone; ovarian progesterone secretion [2]: inhibit ovarian progesterone secretion; thyroid activity (thyroid activity): increase thyroid activity; stereodogenesis in the adrenal glands (adrenal glands): stimulate stereodogenesis in the adrenal glands; contraction of smooth muscle of the vas deferens [3]: contracts the smooth muscle of the vas deferens; gastric secretion (gastric secretion): inhibits gastric secretion; aggregation of blood platelets (blood platelets): inhibits aggregation of blood platelets in vitro

# Source: patent publication US4158018A, “3-Oxa carbinol prostaglandin analogs” (Miles Laboratories, Inc., priority 1978, dated 1979)
